Assays:
[1] = test system: macrophages and NK cells in the CNS lymphoma microenvironment; assay: Immunohistochemistry/immunofluorescence of CNS lymphoma microenvironment, Raji model; format: in vivo, athymic mice; details: P<0.05 vs control
Excerpt: Immunohistochemistry (“IHC”) assessment for macrophages: Paraffin sections (10 μm thick) were fixed, blocked, and immunostained with the appropriate antibody: Iba-1 (BD Biosciences) for macrophages, Ym1 (Stemcell Technologies) as a marker for M2 polarization, iNOS (Calbiochem) as a marker for M1 polarization. Aperio ScanScope XT slide scanner and image analysis system (Aperio Spectrum, Vista, Calif.) were used for quantitative assessment of macrophages. Three equal-size (0.4 mM2) fields in macrophage-dense areas were selected in the contralateral brain and the tumor for counting. Data were shown as an average of the three fields.
Immunofluorescence for natural killer cells: Frozen sections (10 μm thick) were permeabilized with PBS-0.2% Triton X-100 for 5 min. After blocking with PBS-5% goat serum-0.02% Triton X-100 for 45 mins at 37° C., the sections were incubated overnight at 4° C. with Rat monoclonal CD335 antibody (a marker for NK cells, 1:200, Biolegend). After washing, sections were incubated with the Alexa Fluor 594 Goat anti-Rat IgG secondary antibody (1:1000, Life Technologies) at 37° C. for 1.5 h. Finally, Vectashield H-1200 mounting medium with DAPI (Vector Laboratories) was used to stain the nuclei. Images were obtained on a Zeiss LSM 510 META confocal microscope. Six equal-size (0.2 mM^2) fields in NK-dense areas were selected in the tumor for taking pictures. Fluorescence intensity data were generated by Zeiss LSM 510 and shown as an average of six fields.
Statistical analysis: One-way ANOVA was used to compare the difference between the groups at each time point. Two-way repeated measures ANOVA was used to analyze the interaction between the time and treatment. Survival analysis was performed by Kaplan Meier method. Kaplan Meier survival curves were generated using Prism4 software and the statistical difference between curves was derived with a log-rank test. P<0.05 was considered significant.

[2] = test system: primary murine microglia cells cocultured with OCI-LY10 lymphoma cells; assay: Polarization of primary murine microglia cocultured with OCI-LY10 lymphoma cells with or without primary murine NK cells; format: cell-based; details: for M2 polarization of microglia cells (FXIIIA, pSTAT6): coculture with OCI-LY10 lymphoma cells, without NK cells; for polarization status of microglia cells (iNOS, pSTAT1): triple culture with OCI-LY10 lymphoma cells and primary murine NK cells, 10 ug/ml 48 hours
Protocol: Treatments: In experiments in which IL-4 was used to induce M2 polarization of macrophages, cells were treated with IL-4 (20 ng/ml) for 48 hours followed by treatment with 4-amino-2-(2,6-dioxo-piperidine-3-yl)-isoindoline-1,3-dione (10 ug/ml) or DMSO control for 48 hours. In triple cell culture experiments with lymphoma cells, macrophages, and NK cells, the treatment was with either DMSO or 4-amino-2-(2,6-dioxo-piperidine-3-yl)-isoindoline-1,3-dione (10 ug/ml) for 48 hours.
Immunofluorescence for analysis of macrophage polarization in cell culture experiments: Live cells were fixed in 10% formalin for 30 minutes at room temperature followed by permeabilization with PBS-0.2% Triton X-100 for 2 min. After blocking with PBS-5% goat serum-0.02% Triton X-100 for 30 minutes at 37° C., the cells were incubated overnight at 4° C. with rat monoclonal F4/80 antibody (for primary microglia cells, 1:200 Abcam), rat monoclonal CD11b (for U937, 1:200 Biolegend), rabbit polyclonal Ym1 antibody (for primary microglia cells and primary peritoneal macrophages, 1:200, Stemcell Technologies, Vancouver, Canada), rabbit polyclonal FXIII A antibody (for U937, 1:200, Abcam), mouse monoclonal p-STAT1 antibody (1:200, Abcam), rabbit polyclonal p-STAT6 antibody (1:200, Abcam) or rabbit iNOS antibody (1:200, Calbiochem). After washing, cells were incubated with the Alexa Fluor 594 Goat anti-Rat IgG secondary antibody (1:1000, Life Technologies) and FITC Donkey anti-rabbit IgG secondary antibody (1:1000, Life technology) or FITC Goat anti-mouse IgG secondary antibody (1:1000, Sigma) at 37° C. for 45 minutes. Finally, Vectashield H-1200 mounting medium with DAPI (Vector Laboratories) was used to stain the nuclei. Images were obtained on a Zeiss LSM 510 META confocal microscope.

[3] = test system: primary murine microglia cells; assay: Phagocytosis assay, primary murine microglia cells; format: cell-based; details: 3 or 10 ug/ml, 48 hours, P<0.05 vs control
Protocol: Phagocytosis assay: The impact of 4-amino-2-(2,6-dioxo-piperidine-3-yl)-isoindoline-1,3-dione on the phagocytic activity of macrophages was assessed in primary microglial cells and human monocyte cells (U937). The cells were cultured in complete medium for 4 days. They were then harvested and resuspended in Opti-MEM medium at 10^6 cells/ml and seeded in a 96 well plate at 100,000 viable cells/well. The experimental wells were treated with 4-amino-2-(2,6-dioxo-piperidine-3-yl)-isoindoline-1,3-dione 3 or 10 ug/ml. After 48 hours of treatment, the culture medium was quickly replaced with 100 ul of pHrodo BioParticles suspension (Life technologies and the cells were incubated in the suspension at 37° C. for 2-3 hours. Following incubation, the plates were scanned at 550 nm/600 nm (excitation/emission) using fluorescence plate reader. The fluorescence activity reflects the phagocytic activity of the macrophages. The impact of 4-amino-2-(2,6-dioxo-piperidine-3-yl)-isoindoline-1,3-dione treatment (% effect) was calculated as a fraction of the phagocytic activity in the positive control wells. Wan, C. P.; et al., J. Immunol. Methods, 1993, 162, pp. 1-7.

[4] = listed as 4-amino-2-(2,6-dioxo-piperidine-3-yl)-isoindoline-1,3-dione

Nc1cccc2c1C(=O)N(C1CCC(=O)NC1=O)C2=O (stereo not drawn) [Pomalidomide, 4-amino-2-(2,6-dioxo-piperidine-3-yl)-isoindoline-1,3-dione]
CD335 positive NK cells in CNS tumors [1]: significantly increased
Ym1-expressing cells (M2-polarized macrophages) in tumor [1]: significantly decreased
iNOS-expressing cells (M1-polarized macrophages) in tumor [1]: increased
CD335 positive NK cells in CNS tumors [1, 4]: significant increase
Ym1-expressing cells (M2-polarized macrophages) in tumor [1, 4]: significant decrease
iNOS-expressing cells (M1-polarized macrophages) in tumor [1, 4]: significant increase
brain macrophages (Iba-1 positive cells) ([1]; contralateral brain and tumor): significantly increased
M2 polarization of microglia cells (FXIIIA, pSTAT6) [2]: reversed
M2 polarization of microglia cells (FXIIIA, pSTAT6) [2, 4]: M2 polarization was not seen
polarization status of microglia cells (iNOS, pSTAT1) [2]: from M2 to M1
polarization status of microglia cells (iNOS, pSTAT1) [2, 4]: became M1-polarized
phagocytic activity [3]: significantly increased

Reference: patent publication US9839632B2, “Methods and compositions using 4-amino-2-(2,6-dioxo-piperidine-3-yl)-isoindoline-1,3-dione for treatment and management of central nervous system cancers” (CELGENE CORPORATION, priority 2013, dated 2017)
